Data on 32 compounds can be found in patent US10662183B2, “Inhibitors of myocardin-related transcription factor and serum response factor (MRTF/SRF)-mediated gene transcription and methods for use of the same” (THE REGENTS OF THE UNIVERSITY OF MICHIGAN, priority 2014, dated 2020).

The subject of one test is SRE.L-firefly luciferase reporter (Rho/MKL1 pathway) in PC-3 prostate cancer cells. In words: SRE.L-luciferase reporter assay. It counts as cell-based. To be noted: 19 h, PC-3 cells transfected with Gα12Q231L, SRE.L and pRL-TK reporters; compound 19 hrs. As for the experimental part: Seed PC-3 prostate cancer cells (40,000 cells/well) were grown in 96-well plates in 10% FBS containing DMEM medium. Cells were transiently transfected with the Ga12QL activator of the Rho/MKL1 pathway, along with the SRE.L-firefly luciferase reporter construct for 6 hours. Additionally, cells were co-transfected with the TK-Renilla luciferase reporter as an indicator of non-specific compound effects. Various concentrations of the compounds disclosed herein were added to the 96-well plates. Plates were incubated for 19 hours at 37° C. and 5% C02 in 0.5% FBS containing DMEM medium. Cells were lysed with IX Passive Lysis Buffer (Promega). Plates were incubated for 30 minutes at room temperature. Luminescence counts were read with a Victor2 (Perkin-Elmer) plate reader.
One hour prior to cell lysis for the dual luciferase assay, 10 μl: per well of WST1 reagent (Roche) was added to the 96-well plates. Plates were incubated for 1 hour at 37° C. and 5% CO2. Cell viability was measured by WST1 absorbance at 450 nm with a Victor2 (Perkin-Elmer) plate reader.
Biological activity of the compounds disclosed herein were assessed in the SRE.L luciferase reporter assay. PC-3 prostate cancer cells were co-transfected with 2 ng of the Gα12Q231L expression plasmid along with 50 ng of the SRE.L and 7 ng of the pRL-TK luciferase reporter plasmids, as described in the Materials and Methods section. Cells were treated with 0 (vehicle, DMSO alone), 1, 3, 10, 30, and 100 μM of a compound disclosed herein for 19 hrs after transfection before lysis. Luminescence was determined as described in the Materials and Methods section. Just before cell lysis, the viability of the cells was measured using the WST-1 cell proliferation reagent as described in the Materials and Methods section. Data are expressed as percentage of inhibition (DMSO alone=0%). The experiments were performed three separate times to achieve n=3 in triplicate.
In general terms: Reporter assays use an easily measured gene product as a stand-in for the process of interest.
One may read the IC50 as the point on the concentration scale where inhibition reaches its midpoint. A high value points to weaker potency. `O=C(Nc1ccc(Cl)cc1)C1CCCN(C(=O)c2cc3ccc(F)cc3[nH]2)C1` (centres unmarked) [Example E-079, N-(4-chlorophenyl)-1-(6-fluoro-1H-indole-2-carbonyl)piperidine-3-carboxamide] showed an IC50 of 0.92 µM.

With `O=C(Nc1ccc(Cl)cc1)C1CCCN(C(=O)c2n[nH]c3ccccc23)C1` (centres unmarked) [Example E-088, N-(4-chlorophenyl)-1-(1H-indazole-3-carbonyl)piperidine-3-carboxamide], inhibition was half-maximal at 1.5 µM (IC50). This IC50 is about 1.6-fold higher than that of the compound before. Same read-out and setting: for `O=C(Nc1ccc(Cl)cc1)C1CN(C(=O)c2cccc(-c3cn[nH]c3)c2)CC(F)(F)C1` (centres unmarked) [Example E-106, 1-(3-(1H-pyrazol-4-yl)benzoyl)-N-(4-chlorophenyl)-5,5-difluoropiperidine-3-carboxamide] the value was 15 µM; for `O=C(Nc1ccc(Cl)cc1)C1CN(C(=O)c2cccc(-c3ccco3)c2)CCS1(=O)=O` (centres unmarked) [Example E-053, N-(4-chlorophenyl)-4-(3-(furan-2-yl)benzoyl) thiomorpholine-2-carboxamide 1,1-dioxide], 6.8 µM; for `O=C(c1cccc(-c2ccco2)c1)N1CCCC(COc2ccc(Cl)cc2)C1` (centres unmarked) [Example E-066, (3-((4-chlorophenoxy)methyl)piperidin-1-yl)(3-(furan-2-yl)phenyl)methanone], 2.3 µM. Turning to `Cc1nc(-c2ccccc2)sc1C(=O)N1CCCC(C(=O)Nc2ccc(Cl)cc2)C1` (centres unmarked) [Example E-072, N-(4-chlorophenyl)-1-(4-methyl-2-phenylthiazole-5-carbonyl)piperidine-3-carboxamide], inhibition was half-maximal at 0.084 µM (IC50). Still for that read-out and setting: in the case of `O=C(Nc1ccc(Cl)cc1)C1CN(C(=O)Cc2nc3ccccc3[nH]2)CC(F)(F)C1` (centres unmarked) [Example E-070, 1-(2-(1H-benzo[d]imidazol-2-yl)acetyl)-N-(4-chlorophenyl)-5,5-difluoropiperidine-3-carboxamide] it was 9.1 µM; in that of `O=C(Nc1ccc(Cl)cc1)C1CCCN(C(=O)c2cccc(-n3ccnc3)c2)C1` (centres unmarked) [Example E-115, 1-(3-(1H-imidazol-1-yl)benzoyl)-N-(4-chlorophenyl)piperidine-3-carboxamide], 5.2 µM; in that of `O=C(Nc1ccc(Cl)cc1)C1CCCN(C(=O)c2cc(-c3ccco3)[nH]n2)C1` (centres unmarked) [Example E-040, N-(4-chlorophenyl)-1-(5-(furan-2-yl)-1H-pyrazole-3-carbonyl)piperidine-3-carboxamide], 8.1 µM. Same read-out and setting: in the case of `O=C(Nc1ccc(Cl)cc1)C1CN(C(=O)c2cc(-c3ccco3)ccn2)CC(F)(F)C1` (centres unmarked) [Example E-025, N-(4-chlorophenyl)-5,5-difluoro-1-{[4-(furan-2-yl)pyridin-2-yl]carbonyl}piperidine-3-carboxamide] it was 0.81 µM; in that of `O=C(Nc1ccc(Cl)cc1)C1CCCN(C(=O)c2cncc(-c3ccco3)c2)C1` (centres unmarked) [Example E-023, N-(4-chlorophenyl)-1-(5-(furan-2-yl)nicotinoyl)piperidine-3-carboxamide], 4.9 µM; in that of `O=C(NCc1ccc(Cl)cc1)C1CCCN(C(=O)c2cccc(-c3ccco3)c2)C1` (centres unmarked) [Example E-112, N-(4-chlorobenzyl)-1-(3-(furan-2-yl)benzoyl)piperidine-3-carboxamide], 21 µM.

`O=C(Nc1ccc(Cl)cc1)C1CCCN(C(=O)c2ccccc2-n2cccn2)C1` (centres unmarked) [Example E-090, 1-(2-(1H-pyrazol-1-yl)benzoyl)-N-(4-chlorophenyl) piperidine-3-carboxamide]: the IC50 was 0.24 µM. Still for that read-out and setting: in the case of `CCOC(=O)NC1CC(C(=O)Nc2ccc(Cl)cc2)CN(C(=O)c2cccc(-c3ccco3)c2)C1` (centres unmarked) [Example E-058, ethyl (5-((4-chlorophenyl)carbamoyl)-1-(3-(furan-2-yl)benzoyl)piperidin-3-yl)carbamate] it was 15 µM; in that of `O=C(Nc1ccc(Cl)cc1)C1CCCN(C(=O)c2ccc3cn[nH]c3c2)C1` (centres unmarked) [Example E-093, N-(4-chlorophenyl)-1-(1H-indazole-6-carbonyl)piperidine-3-carboxamide], 0.49 µM; in that of `O=C(Nc1ccc(Cl)cc1)C1CCCN(C(=O)c2ccccc2-c2ccco2)C1` (centres unmarked) [Example E-092, N-(4-chlorophenyl)-1-(2-(furan-2-yl)benzoyl)piperidine-3-carboxamide], 0.71 µM. On the same count and under the same terms, in the case of `O=C(Nc1ccc(Cl)cc1)C1CN(C(=O)c2cccc(-c3ccco3)c2)CCS1` (centres unmarked) [Example E-052, N-(4-chlorophenyl)-4-(3-(furan-2-yl)benzoyl) thiomorpholine-2-carboxamide] it was 1.6 µM; in that of `O=C(Nc1ccc(Cl)cc1)C1CCCN(C(=O)c2cc(-c3ccco3)ncn2)C1` (centres unmarked) [Example E-034, N-(4-chlorophenyl)-1-(6-(furan-2-yl)pyrimidine-4-carbonyl) piperidine-3-carboxamide], greater than 100 µM. Regarding `O=C(Nc1ccc(Cl)cc1)C1CCCN(C(=O)c2ccc3cc[nH]c3c2)C1` (centres unmarked) [Example E-086, N-(4-chlorophenyl)-1-(1H-indole-6-carbonyl)piperidine-3-carboxamide], the IC50 is 0.097 µM. Take `O=C(Nc1ccc(Cl)cc1)C1CCCN(C(=O)Cc2c[nH]c3ccccc23)C1` (centres unmarked) [Example E-084, 1-(2-(1H-indol-3-yl)acetyl)-N-(4-chlorophenyl)piperidine-3-carboxamide]: the half-inhibitory concentration (IC50) came out at 0.39 µM. `COC1(OC)CC(C(=O)Nc2ccc(Cl)cc2)CN(C(=O)c2cccc(-c3ccco3)c2)C1` (centres unmarked) [Example E-021, N-(4-chlorophenyl)-1-(3-(furan-2-yl)benzoyl)-5,5-dimethoxypiperidine-3-carboxamide] gave a 50% inhibitory concentration (IC50) of 4.4 µM. Take `CC(c1ccc(-n2cccn2)cc1)N1CCCC(C(=O)Nc2ccc(Cl)cc2)C1` (single isomer, unassigned) [Example E-102, 1-(1-(4-(1H-pyrazol-1-yl)phenyl)ethyl)-N-(4-chlorophenyl)piperidine-3-carboxamide]: the midpoint of inhibition, the IC50, lay at 1.4 µM. On to `Cn1c(C(=O)N2CCCC(C(=O)Nc3ccc(Cl)cc3)C2)nc2ccccc21` (centres unmarked) [Example E-035, N-(4-chlorophenyl)-1-(1-methyl-1H-benzo[d]imidazole-2-carbonyl)piperidine-3-carboxamide], for which half-maximal inhibition (IC50) required 8 µM. This IC50 is about 5.7-fold higher than that of the compound before.

Regarding `O=C(Nc1c(F)cccc1F)C1CCCN(C(=O)c2cccc(-c3ccco3)c2)C1` (centres unmarked) [Example E-097, N-(2,6-difluorophenyl)-1-(3-(furan-2-yl)benzoyl)piperidine-3-carboxamide], it took 32 µM to reach half-maximal inhibition (IC50). Same read-out and setting: for `CCC(=O)NC1CC(C(=O)Nc2ccc(Cl)cc2)CN(C(=O)c2cccc(-c3ccco3)c2)C1` (centres unmarked) [Example E-049, N-(4-chlorophenyl)-1-(3-(furan-2-yl)benzoyl)-5-propionamidopiperidine-3-carboxamide] the value was 6.3 µM; for `C=CCNC(=O)N1CCN(C(=O)c2cccc(-c3ccco3)c2)CC1C(=O)Nc1ccc(Cl)cc1` (centres unmarked) [Example E-012, N1-allyl-N2-(4-chlorophenyl)-4-(3-(furan-2-yl)benzoyl)piperazine-1,2-dicarboxamide], 25 µM.

In the case of `O=C(c1cccc(-c2cn[nH]c2)c1)N1CC(COc2ccc(Cl)cc2)CC(F)(F)C1` (centres unmarked) [Example E-051, (3-(1H-pyrazol-4-yl)phenyl)(5-((4-chlorophenoxy)methyl)-3,3-difluoropiperidin-1-yl)methanone], inhibition was half-maximal at 3.3 µM (IC50). In turn, `O=C(Nc1ccc(Cl)cc1)C1CN(C(=O)c2cccc(-c3ncccn3)c2)CC(F)(F)C1` (centres unmarked) [Example E-050, N-(4-chlorophenyl)-5,5-difluoro-1-(3-(pyrimidin-2-yl)benzoyl)piperidine-3-carboxamide] came in with a concentration for half-maximal inhibition (IC50) of 1.1 µM. In turn, `O=C(Nc1ccc(Cl)cc1)C1CCCN(C(=O)c2csc(-c3ccco3)n2)C1` (centres unmarked) [Example E-038, N-(4-chlorophenyl)-1-(2-(furan-2-yl)thiazole-4-carbonyl) piperidine-3-carboxamide] had an IC50 of 6.5 µM.

The test is the same for the next values; noted with them: PC-3 cells transfected with Gα12Q231L, SRE.L and pRL-TK reporters; compound 19 hrs.
In the case of `CN(Cc1ccccc1)C1CC(C(=O)Nc2ccc(Cl)cc2)CN(C(=O)c2cccc(-c3ccco3)c2)C1` (single isomer, unassigned) [Example E-060, 5-(benzyl(methyl)amino)-N-(4-chlorophenyl)-1-(3-(furan-2-yl)benzoyl)piperidine-3-carboxamide], 18 µM corresponded to half-maximal inhibition (IC50). In other words, the double-digit micromolar range. Same read-out and setting: for `CN(Cc1ccccc1)C1CC(C(=O)Nc2ccc(Cl)cc2)CN(C(=O)c2cccc(-c3ccco3)c2)C1` (single isomer, unassigned) [Example E-061, 5-(benzyl(methyl)amino)-N-(4-chlorophenyl)-1-(3-(furan-2-yl)benzoyl)piperidine-3-carboxamide] the value was 1.9 µM. Same read-out and setting: for `COC1CC(C(=O)Nc2ccc(Cl)cc2)CN(C(=O)c2cccc(-c3ccco3)c2)C1` (single isomer, unassigned) [Example E-046, N-(4-chlorophenyl)-1-(3-(furan-2-yl)benzoyl)-5-methoxypiperidine-3-carboxamide] the value was 2.3 µM.
